ChEMBL document CHEMBL3526156, “Bioactivation of the cancer chemopreventive agent tamoxifen to quinone methides by cytochrome P4502B6 and identification of the modified residue on the apoprotein” (Drug Metab Dispos, 2012)

What was measured:
Type in all cases: ADME
[1] = molecular target: T1, Cytochrome P450 2B6 (Homo sapiens, UniProt P20813); test: Activity at CYP2B6 (unknown origin) expressed Escherichia coli C41 DE3 cells assessed as enzyme-mediated 4-hydroxytamoxifen quinone methide metabolite formation by measuring reactive metabolite adduct with GSHEE at 90 uM by LC-MS/MS analysis
T1 sequence (P20813 whole entry): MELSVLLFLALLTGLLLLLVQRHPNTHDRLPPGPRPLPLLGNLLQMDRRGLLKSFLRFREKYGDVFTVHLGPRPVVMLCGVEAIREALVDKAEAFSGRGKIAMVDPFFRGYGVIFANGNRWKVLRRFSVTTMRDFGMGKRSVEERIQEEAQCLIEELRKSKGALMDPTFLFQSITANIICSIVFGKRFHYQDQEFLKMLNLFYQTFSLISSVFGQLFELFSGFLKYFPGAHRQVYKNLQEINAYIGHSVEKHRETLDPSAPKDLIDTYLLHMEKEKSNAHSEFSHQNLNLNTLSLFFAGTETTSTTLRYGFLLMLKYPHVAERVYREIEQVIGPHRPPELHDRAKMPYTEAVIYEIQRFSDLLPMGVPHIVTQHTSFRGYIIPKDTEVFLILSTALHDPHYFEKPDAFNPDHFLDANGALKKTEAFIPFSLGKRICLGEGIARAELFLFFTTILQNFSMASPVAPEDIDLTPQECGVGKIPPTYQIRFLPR

[2] = molecular target: T1, Cytochrome P450 2B6; test: Activity at CYP2B6 (unknown origin) expressed Escherichia coli C41 DE3 cells assessed as compound formation by measuring retention time treated with tamoxifen at 60 uM by LC-MS/MS analysis
[3] = molecular target: T1, Cytochrome P450 2B6; test: Activity at CYP2B6 (unknown origin) expressed Escherichia coli C41 DE3 cells assessed as compound formation by measuring retention time treated with 4-hydroxytamoxifen at 90 uM by LC-MS/MS analysis
[4] = Drug metabolism in human liver microsomes assessed as compound formation by measuring retention time at 90 uM by LC-MS/MS analysis
[5] = molecular target: T1, Cytochrome P450 2B6; test: Inactivation of CYP2B6 (unknown origin) expressed in Escherichia coli C41 DE3 cells assessed as modified apo-P450 2B6 adduct formation at 60 uM by ESI-LC-MS analysis in presence of NADPH and GSHEE
[6] = molecular target: T1, Cytochrome P450 2B6; test: Inactivation of CYP2B6 (unknown origin) expressed in Escherichia coli C41 DE3 cells assessed as modified apo-P450 2B6 adduct formation at 60 uM after 10 mins by ESI-LC-MS analysis in presence of NADPH

CCC(=C(c1ccc(O)cc1)c1ccc(OCCN(C)C)cc1)c1ccccc1
Retention time [1]: 16.9 min

C/C=C(/C(=C1C=CC(=O)C=C1)c1ccc(OCCN(C)C)cc1)c1ccccc1
Retention_time [2]: 18.3 min | Retention_time [3]: 16.9 min | Retention_time [4]: 16.6 min

CC/C(=C(\c1ccccc1)c1ccc(OCCN(C)C)cc1)c1ccccc1 [TAMOXIFEN]
Activity [5]: Active | Activity [6]: Active
